# According to publication PMC5447021, “TNF Lectin-Like Domain Restores Epithelial Sodium Channel Function in Frameshift Mutants Associated with Pseudohypoaldosteronism Type 1B” (Frontiers in Immunology, 2017):
# “Also recorded” adds a separate entry of the source.
# Assays:
# Assay type in all cases: cell-based, human
# [1] = test system: βE539A,E542A γE548A,E551A-ENaC (βM2γM2); experiment: Whole-cell patch clamp, βM2γM2-ENaC; settings: HEK-293, 200 nM solnatide
# Experimental: Point mutations of α-, β-, γ- and δ-hENaC and PHA1B frameshift mutations of α-hENaC were prepared with the QuikChange Lightning Site-Directed Mutagenesis Kit (Agilent Technologies, CA, USA). Mutagenic primers were designed individually with the Primer Design Program provided on the producer’s website or for the frameshift mutations the same base changes as reported in patients (see Table 2) were performed. Primers were ordered from Sigma-Aldrich, Vienna, Austria.
# HEK-293 cells were transfected 1 day after cell seeding using X-tremeGENE HP DNA transfection reagent (Roche Diagnostics, Mannheim, Germany) according to the manufacturer’s protocol. A set of WT or mutant αβγ- or δβγ-hENaC, or α-, β-, γ-, or δ-hENaC alone was used, and the ratio of DNA to transfection reagent was 1:3. The expression was highest 48–72 h after transfection.
# Electrophysiological experiments were performed as described in detail by Shabbir et al. ([16]). […] Currents were recorded with the patch clamp method in the whole-cell mode. The chamber contained 1 ml of the bath solution of the following composition (in mM): 145 NaCl, 2.7 KCl, 1.8 CaCl2, 2 MgCl2, 5.5 glucose, and 10 HEPES, adjusted to pH 7.4 with 1 M NaOH solution. Micropipettes were pulled from thin-walled borosilicate glass capillaries (Harvard Apparatus, Holliston, MA, USA) with a DMZ Zeitz Puller to obtain electrode resistances ranging from 2 to 5 MΩ. […]
# αE272fs = experiment: Membrane abundance of αE272fs; settings: 200 nM, relative to WT control (=1), own control 0.35 ± 0.06, p < 0.001 vs control
# Experimental: (§1) Cell surface biotinylation was performed as previously described ([26]). In brief, A549 cells or transiently transfected HEK-293 cells were grown in 10 cm dishes in 37°C, 5% CO2 incubator in DMEM medium supplemented with 5% FBS. […] Medium was aspirated, and then cells were washed twice with 10 ml ice-cold phosphate-buffered saline (PBS), covered with 2.5 mg EZ-Link Sulfo-NHS-SS-Biotin (Thermo Scientific, Rockford, USA), dissolved in 10 ml ice-cold PBS, and incubated at 4°C with gentle agitation for 30 min. Fifty milliliters of quenching solution were added to cells; then cells were scraped in solution and transferred to fresh 50 ml tube. Cell suspension was centrifuged at 500 × g for 3 min. Supernatant was discarded, and 5 ml of Tris-buffered saline (TBS) was added to the cell pellet. The cell pellet was resuspended and centrifuged at 500 × g for 3 min. Supernatant was discarded and cell pellet was resuspended in lysis buffer containing protease inhibitor cocktail (10 µM pepstatin A, 10 µM phenylmethylsulfonyl fluoride, and 10 µM leupeptin) and transferred to fresh 1.5 ml centrifuge tube. Cell pellet was then homogenized on ice by ultrasonication using 1 s bursts and incubated on ice for at least 30 min. Intact cells and nuclei were pelleted by centrifugation at 10,000 × g for 2 min under cooling conditions. […] Exposed films were scanned and quantified using ImageJ (NIH, MD, USA). […]
# αF435fs = experiment: Membrane abundance of αF435fs
# Experimental: as §1, with “conditions. Pellet was then discarded and supernatant was transferred to fresh tube, incubated overnight with 0.5 ml NeutrAvidin Agarose under gentle rotation at 4°C and centrifuged at 500 × g for 5 min under cooling conditions. Supernatant was then discarded and the pellet washed twice with 200 µl lysis buffer. The biotinylated proteins were eluted with 100 µl sodium dodecyl sulfate (SDS) sample buffer (62.5 mM Tris, pH 6.8, 1% SDS, 10% glycerine, 50 mM dithiothreitol) containing 10 µM E64 at 65°C for 10 min. Sample was then centrifuged at 500 × g for 2 min. Pellet was discarded and supernatant subjected to protein electrophoresis and immunoblotting.” for “conditions.”
# αS452fs = experiment: Membrane abundance of αS452fs; settings: 200 nM, relative to WT control (=1), own control 1.11 ± 0.25, p < 0.001 vs control
# Experimental: as §1
smiles,measurement,setting,value
"C[C@@H]1NC(=O)CNC(=O)[C@H](CCC(=O)O)NC(=O)[C@@H]2CCCN2C(=O)[C@H]([C@@H](C)O)NC(=O)[C@H](CCC(=O)O)NC(=O)[C@H](CCCNC(=N)N)NC(=O)[C@H](CCC(N)=O)NC(=O)CNC(=O)[C@@H](N)CSSC[C@@H](C(=O)O)NC(=O)[C@H](Cc2ccc(O)cc2)NC(=O)[C@H](Cc2c[nH]c3ccccc23)NC(=O)[C@@H]2CCCN2C(=O)[C@H](CCCCN)NC(=O)[C@H](C)NC(=O)[C@H](CCC(=O)O)NC1=O [solnatide, L-cysteine, L-cysteinylglycyl-L-glutaminyl-L-arginyl-L-α-glutamyl-L-threonyl-L-prolyl-L-α-glutamylglycyl-L-alanyl-L-α-glutamyl-L-alanyl-L-lysyl-L-prolyl-L-tryptophyl-L-tyrosyl-, cyclic (1→17)-disulfide]",Effect of solnatide on current (words),[1]; n = 3,A small increase in the amiloride-sensitive Na^+ current was still observed; also recorded: still able to activate βM2γM2-ENaC (not significant) to an equal extent as WT βγ-ENaC
same,Effect of solnatide on current (words),"[1]; n = 3, listed as Solnatide",still increased the amiloride-sensitive sodium current in these mutants
same,"Membrane abundance, solnatide 5 min",αE272fs; 5 min,0.72 ± 0.03
same,"Membrane abundance, solnatide 10 min",αE272fs; 10 min,0.64 ± 0.05
same,"Membrane abundance, solnatide 5 min","αF435fs; 200 nM, 5 min, relative to WT control (=1), own control 2.37 ± 0.15, p < 0.001 vs control",3.71 ± 0.20
same,"Membrane abundance, solnatide 10 min","αF435fs; 200 nM, 10 min, relative to WT control (=1), own control 2.37 ± 0.15, p < 0.01 vs control",2.82 ± 0.17
same,Membrane abundance after solnatide,αF435fs; HEK-293,the membrane abundance increasing even further following exposure to solnatide
same,"Membrane abundance, solnatide 5 min",αS452fs; 5 min,1.36 ± 0.11
same,"Membrane abundance, solnatide 10 min",αS452fs; 10 min,1.94 ± 0.08
